Here are results for three compounds from ChEMBL document CHEMBL1629414, “A neuroprotective sulfone of marine origin and the in vivo anti-inflammatory activity of an analogue” (Eur J Med Chem, 2010).

Active and inactive are the calls of the source. The rule behind the calls is not given here. Bounds are passed on as bounds.

For orientation: solubility means how much of the substance goes into solution per volume. As a reminder, the IC50 is the point on the concentration scale where inhibition reaches its midpoint.

The subject of series [1] is RAW264.7. In words: Cytotoxicity against mouse RAW264.7 cells assessed as inhibition of beta-actin expression at 30 uM by Western blotting. The series is classed as cell-based. The settings on record: raw264.7, 30 µM. (In general: A western blot detects proteins with antibodies after separation by electrophoresis.)
Series [2] in a line: Solubility of the compound in water. The series is classed as physicochemical.
The test system of series [3] is SH-SY5Y. Nature of the series: Neuroprotective activity in human SH-SY5Y cells assessed as protection against 6-OHDA-induced cytotoxicity pretreated 1 hr before 6-OHDA challenge measured after 15 hrs by Alamar blue assay. The series is classed as functional. (In general: Resazurin is reduced to fluorescent resorufin, in cell work by metabolically active cells.)
In series [4] the test system is SH-SY5Y. Nature of the series: Neuroprotective activity in human SH-SY5Y cells assessed as protection against 6-OHDA-induced cytotoxicity at 1 uM pretreated 1 hr before 6-OHDA challenge measured after 15 hrs by Alamar blue assay. The series is classed as functional, cell-based.
The subject of series [5] is RAW264.7. In words: Antiinflammatory activity in mouse RAW264.7 cells assessed as inhibition of LPS-induced expression of iNOS after treated 10 mins before LPS challenge measured after 16 hrs by Western blotting. The series is classed as functional, cell-based.
The subject of series [6] is RAW264.7. Nature of the series: Antiinflammatory activity in mouse RAW264.7 cells assessed as inhibition of LPS-induced expression of COX-2 treated 10 mins before LPS challenge measured after 16 hrs by Western blotting. The series is classed as functional, cell-based.
Series [7] deals with RAW264.7. Nature of the series: Cytotoxicity against mouse RAW264.7 cells assessed as inhibition of beta-actin expression at 50 uM by Western blotting. The series is classed as cell-based. The settings on record: raw264.7, 50 µM.
Series [8] relates to Rattus norvegicus. Nature of the series: Antinociceptive activity in chronic constriction injury neuropathic pain Wistar rat model assessed as reduction of paw withdrawal latency at 0.1 to 5 ug, administered intrathecally after 20 mins. The series is classed as functional, organism-based.
Series [9] deals with Rattus norvegicus. In words: Antiatherosclerotic activity against balloon injury-induced angioplasty in Wistar rat assessed as inhibition of neointimal proliferation at 3 mg/kg/day, sc relative to control. The series is classed as functional. On the set-up: scale not given: the % may be the effect or the level left. The note with it: route subcutaneous.
The test system of series [10] is Rattus norvegicus. Nature of the series: Protection against encephalomyelitis-induced clinical signs in Lewis rat preimmunized with Freund's complete adjuvant at 30 ug/kg, administered intrathecally bid for 5 days from day 7 after immunization. The series is classed as functional, organism-based.
Series [11] deals with Rattus norvegicus. Nature of the series: Antinociceptive activity in chronic constriction injury neuropathic pain Wistar rat model assessed as reduction of paw withdrawal latency at 5 ug, administered intrathecally after 20 to 120 mins. The series is classed as functional, organism-based.
Series [12] deals with Rattus norvegicus. Nature of the series: Antinociceptive activity in intrathecally dosed chronic constriction injury neuropathic pain Wistar rat model assessed as reduction of paw withdrawal latency measured up to 120 mins. The series is classed as functional.
Series [13] relates to Rattus norvegicus. In words: Toxicity in chronic constriction injury neuropathic pain Wistar rat model assessed as effect on locomotor activity at 0.1 to 5 ug, administered intrathecally. The series is classed as organism-based. The settings on record: in vivo, icv_or_intrathecal.
The test system of series [14] is Rattus norvegicus. Nature of the series: Toxicity in Lewis rat assessed as neurological deffects at 30 ug/kg, administered intrathecally bid for 5 days. The series is classed as organism-based. The settings on record: in vivo, icv_or_intrathecal, 0.03 mg/kg, 120 h.
Series [15] relates to RAW264.7. Nature of the series: Antiinflammatory activity in mouse RAW264.7 cells assessed as inhibition of LPS-induced expression of iNOS at 10 uM treated 10 mins before LPS challenge measured after 16 hrs by Western blotting relative to control. The series is classed as functional. More on the design: scale not given: the % may be the effect or the level left.
Series [16] deals with RAW264.7. Nature of the series: Antiinflammatory activity in mouse RAW264.7 cells assessed as inhibition of LPS-induced expression of COX2 at 10 uM treated 10 mins before LPS challenge measured after 16 hrs by Western blotting relative to control. The series is classed as functional. On the set-up: scale not given: the % may be the effect or the level left.

Consider `C=CS(=O)(=O)CCC(C)=O` [AUSTRASULFONE], for which the values for the Activity entry in the series with RAW264.7 [1] and in the series with SH-SY5Y [3] were “Toxic” and “Dose-dependent effect”, respectively. For the same compound, in series [2], the solubility is > 50 mg/mL. Besides, the EC50 in the series on SH-SY5Y [3] (read-out: ED50 (the source's name)) was 0.011 µM.
`CC(=O)CCS(=O)(=O)CCO`: in the series on SH-SY5Y [4], the result was inactive. Moreover, the figures for the IC50 with RAW264.7 [5] and with RAW264.7 [6] were 3.6 µM and 32.1 µM, respectively. Besides, the Activity result is “Toxic” in the series on RAW264.7 [7], 98.1% with Rattus norvegicus [9], “Non-toxic” in the series on Rattus norvegicus [13] and “Non-toxic” in the series on Rattus norvegicus [14]. In addition, the result in the series on Rattus norvegicus [8], with Rattus norvegicus [10] and in the series on Rattus norvegicus [11] was Active. In the series on Rattus norvegicus [12], the ED50 was determined as 0.75 µg.
For the compound `CC(=O)CCSCCO`, the Activity with RAW264.7 [15] worked out at 59.5%; in the series with RAW264.7 [16], 91.2%.
